Patent publication US20160137746A1, “METHODS FOR TREATING HIGH CARDIOVASCULAR RISK PATIENTS WITH HYPERCHOLESTEROLEMIA” (Sanofi Biotechnology, priority 2014, published 2016)

Test system: high cardiovascular risk patients with hypercholesterolemia
Experiment: ODYSSEY COMBO I: lipid efficacy of alirocumab vs placebo, add-on to maximally tolerated statin, 52 weeks
Type: in vivo, human
Source text: Each of the COMBO studies was randomized, double-blinded, and placebo-controlled.
The primary efficacy endpoint for each study was the difference between treatment arms in the percent change in LDL-C from baseline to Week 24.
Apo, apolipoprotein; HDL-C, high-density lipoprotein cholesterol; ITT, intent-to-treat; LDL-C, low-density lipoprotein cholesterol; Lp(a), lipoprotein (a); TG, triglycerides.
COMBO I was a Phase 3, randomized, double-blind, placebo-controlled, parallel-group, multicenter, 52-week study.
After randomization, patients entered a double-blind treatment period of 52 weeks. […] Patients randomized to placebo received a 1 ml SC placebo injection from an identical auto-injector.
To maintain blinding, the patient and investigator were not informed of the Week 8 LDL-C levels (or any lipid values after randomization); continuation or up-titration of dose occurred in an automated and blinded manner.
Primary analyses of efficacy endpoints were conducted using an ITT approach (based on the ITT population defined above), including all lipid data, regardless of whether the patient was continuing therapy or not. This corresponds to ITT estimands, defined for primary and key secondary endpoints. In addition, analyses were also conducted using an on-treatment approach (based on the mITT population defined above), including lipid data collected during the efficacy treatment period. This corresponds to on-treatment estimands of key secondary endpoints.
With regards to the primary efficacy analysis (ITT approach), the percent change in calculated LDL-C from baseline to Week 24 was analyzed using a mixed-effect model with repeated measures (MMRM) approach. All post-baseline data available from Week 4 to Week 52 analysis windows were used and missing data were accounted for by the MMRM.

[1] = ITT, Week 24, listed as alirocumab

## Alirocumab: human anti-PCSK9 antibody; HCVR SEQ ID NO:1, LCVR SEQ ID NO:6; CDRs SEQ ID NOs 2/3/4/7/8/10
32 of 191 patients with at least one injection after Week 12
  Patients with automatic up-titration at Week 12 from 75 mg Q2W to 150 mg Q2W (Week 8 LDL-C ≧70 mg/dL): 16.8%
'Combo I: Overall Results' paragraph
  Patients who reached LDL-C <70 mg/dL despite baseline LDL-C >190 mg/dL: 32%
ITT, Week 4
  Calculated LDL-C change from baseline, LS mean: -1.308 mmol/L
  Calculated LDL-C change from baseline, LS mean (SE): −50.5 (1.7) mg/dL
  Calculated LDL-C value, LS mean: 1.327 mmol/L
  Calculated LDL-C value, LS mean (SE): 51.2 (1.7) mg/dL
  Calculated LDL-C, LS mean (SE) percent change from baseline: −50.6 (1.7) %
ITT, Week 8
  Calculated LDL-C change from baseline, LS mean: -1.372 mmol/L
  Calculated LDL-C change from baseline, LS mean (SE): −53.0 (1.7) mg/dL
  Calculated LDL-C value, LS mean: 1.264 mmol/L
  Calculated LDL-C value, LS mean (SE): 48.8 (1.7) mg/dL
  Calculated LDL-C, LS mean (SE) percent change from baseline: −51.6 (1.7) %
ITT, Week 12
  Apo-B percent change, LS mean difference vs placebo: placebo of −38.2%
  Calculated LDL-C change from baseline, LS mean: -1.207 mmol/L
  Calculated LDL-C change from baseline, LS mean (SE): −46.6 (2.0) mg/dL
  Calculated LDL-C percent change, LS mean difference vs placebo: placebo of −47.4%
  Calculated LDL-C value, LS mean: 1.428 mmol/L
  Calculated LDL-C value, LS mean (SE): 55.1 (2.0) mg/dL
  Non-HDL-C percent change, LS mean difference vs placebo: placebo of −40.1%
  Total-C percent change, LS mean difference vs placebo: placebo of −26.4%
ITT, Week 12 (before possible up-titration)
  Calculated LDL-C, LS mean (SE) percent change from baseline: −46.3 (1.8) %
ITT, Week 12 (before possible up-titration), listed as alirocumab
  Calculated LDL-C, LS mean (SE) percent change from baseline: −46.3%
ITT, Week 12, listed as alirocumab
  Calculated LDL-C percent change, LS mean difference vs placebo: −47.4%
ITT, Week 16
  Calculated LDL-C change from baseline, LS mean: -1.345 mmol/L
  Calculated LDL-C change from baseline, LS mean (SE): −51.9 (1.9) mg/dL
  Calculated LDL-C value, LS mean: 1.291 mmol/L
  Calculated LDL-C value, LS mean (SE): 49.8 (1.9) mg/dL
  Calculated LDL-C, LS mean (SE) percent change from baseline: −50.5 (1.9) %
ITT, Week 24
  Apo-B percent change, LS mean difference vs placebo: placebo of −35.8%
  Calculated LDL-C change from baseline, LS mean: -1.303 mmol/L
  Calculated LDL-C change from baseline, LS mean (SE): −50.3 (2.0) mg/dL
  Calculated LDL-C percent change, LS mean difference (SE) vs placebo: −45.9 (3.3) %
  Calculated LDL-C value, LS mean: 1.332 mmol/L
  Calculated LDL-C value, LS mean (SE): 51.4 (2.0) mg/dL
  Calculated LDL-C, LS mean (SE) percent change from baseline: −48.2 (1.9) %
  Calculated LDL-C, LS mean difference (SE) vs placebo, pattern-mixture-model sensitivity analysis: −42.7 (3.7) %
  HDL-C percent change, LS mean difference vs placebo: placebo of 7.3%
  Lp(a) percent change, combined estimate for adjusted mean difference vs placebo: vs. placebo of −14.6%
  Non-HDL-C percent change, LS mean difference vs placebo: placebo of −37.5%
  Total-C percent change, LS mean difference vs placebo: placebo of −25%
[1]
  Calculated LDL-C percent change, LS mean difference (SE) vs placebo: −45.9%
  Calculated LDL-C, LS mean (SE) percent change from baseline: −48.2%
ITT, Week 24, not statistically significant (p 0.7597)
  Fasting TGs percent change, combined estimate for adjusted mean difference vs placebo: vs. placebo of −1.2%
ITT, Week 36
  Calculated LDL-C change from baseline, LS mean: -1.225 mmol/L
  Calculated LDL-C change from baseline, LS mean (SE): −47.3 (2.2) mg/dL
  Calculated LDL-C value, LS mean: 1.411 mmol/L
  Calculated LDL-C value, LS mean (SE): 54.5 (2.2) mg/dL
  Calculated LDL-C, LS mean (SE) percent change from baseline: −44.8 (2.5) %
ITT, Week 52
  Calculated LDL-C change from baseline, LS mean: -1.153 mmol/L
  Calculated LDL-C change from baseline, LS mean (SE): −44.5 (2.4) mg/dL
  Calculated LDL-C percent change, LS mean difference vs placebo: placebo of −43%
  Calculated LDL-C value, LS mean: 1.483 mmol/L
  Calculated LDL-C value, LS mean (SE): 57.2 (2.4) mg/dL
  Calculated LDL-C, LS mean (SE) percent change from baseline: −42.5 (2.5) %
ITT, Week 52, listed as alirocumab
  Calculated LDL-C, LS mean (SE) percent change from baseline: −42.5%
On-treatment, Week 12
  Calculated LDL-C percent change, LS mean difference vs placebo: placebo of −49.3%
On-treatment, Week 24
  Apo-B percent change, LS mean difference vs placebo: placebo of −37.5%
  Calculated LDL-C percent change, LS mean difference (SE) vs placebo: −49.9%
